Each structure is given as a SMILES string. Several values for one entry are separate records, joined by “and”; a condition that tells them apart may be missing. Equal entries are not always repeated.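 48-hour exposure; five concentrations; linearly interpolated endpoints. GI50 marks 50% less growth. TGI is the concentration that stops growth completely.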 Bounds are passed on as bounds.

Some test systems named below: HCT-15 colon; HL-60(TB) leukemia; HOP-92 NSCLC; MDA-MB-231 breast; OVCAR-4 ovarian; RPMI-8226 leukemia; SF-268 CNS; UACC-257 melanoma.
Holding throughout (test): NCI anticancer screen, dose series, 48 h

For `CCOc1ccc2nc3cc(N)ccc3c(N)c2c1`, the GI50 in the assay on HCT-15 colon is 23.2 µM and 12.1 µM; with HL-60(TB) leukemia it was 19.8 µM and 20.2 µM; in the assay on HOP-92 NSCLC, 3.4 µM and 2.96 µM; in the assay with MDA-MB-231 breast it was 10.2 µM and 4.44 µM; in the assay on OVCAR-4 ovarian, 2.3 µM and 3.38 µM; with RPMI-8226 leukemia it was 15.4 µM and 13.9 µM. Besides, the GI50 was 0.385 µM and 0.324 µM in the assay with SF-268 CNS; 11 µM and 5.67 µM with UACC-257 melanoma. In addition, the TGI in the assay with HCT-15 colon was > 100 µM and 33.7 µM; with HL-60(TB) leukemia it was 42.2 µM and 43.7 µM; in the assay with HOP-92 NSCLC, 16.4 µM and 11.3 µM; with MDA-MB-231 breast, 22.8 µM and 17.6 µM; with OVCAR-4 ovarian, 5.45 µM and 13 µM; in the assay on RPMI-8226 leukemia, 43.5 µM and 38.4 µM. For the same compound, the TGI in the assay on SF-268 CNS was 1.79 µM and 1.68 µM; in the assay with UACC-257 melanoma it was 28.6 µM and 21 µM.

`CN1CCN(CCCOC(=O)c2c3c(n4ccccc24)C(=O)c2ncccc2C3=O)CC1`: the GI50 in the assay with HCT-15 colon was under 0.0143 µM; in the assay with HL-60(TB) leukemia it was 0.0684 µM; in the assay with HOP-92 NSCLC, 0.254 µM; in the assay with MDA-MB-231 breast, 2.53 µM; with OVCAR-4 ovarian it was 0.537 µM; with RPMI-8226 leukemia, 0.0653 µM. Besides, the values for the GI50 in the assay with SF-268 CNS and in the assay with UACC-257 melanoma were under 0.01 µM and 0.0219 µM, respectively. Further, the TGI in the assay with HCT-15 colon stood at 1.52 µM; in the assay with HL-60(TB) leukemia, 14.6 µM; in the assay on HOP-92 NSCLC, 16.8 µM; in the assay with MDA-MB-231 breast it was 37.2 µM; in the assay on OVCAR-4 ovarian, 3.78 µM; in the assay with SF-268 CNS, 10.3 µM. In addition, in the assay with UACC-257 melanoma, the TGI turned out to be 1.3 µM.

Take `C=C(C)[C@@H]1CC[C@]2(C(=O)OC)CC[C@]3(C)[C@H](CC[C@@H]4[C@@](C)(CCc5nn[nH]n5)[C@H](C(=C)C)CC[C@]43C)[C@@H]12`: the GI50 is 13.2 µM in the assay on HCT-15 colon; 19 µM in the assay with HL-60(TB) leukemia; 8.08 µM in the assay with HOP-92 NSCLC; 15.5 µM with MDA-MB-231 breast; 14.7 µM in the assay with OVCAR-4 ovarian; 4.07 µM in the assay on RPMI-8226 leukemia. The figures for the GI50 with SF-268 CNS and in the assay with UACC-257 melanoma were 15.7 µM and 23.9 µM, respectively. In addition, the TGI stood at 35.7 µM in the assay on HCT-15 colon; 62.3 µM with HL-60(TB) leukemia; 22.3 µM with HOP-92 NSCLC; 30.8 µM in the assay with MDA-MB-231 breast; 48.1 µM with OVCAR-4 ovarian; 29.8 µM in the assay on RPMI-8226 leukemia. The figures for the TGI with SF-268 CNS and in the assay with UACC-257 melanoma were 34.9 µM and 79.9 µM, respectively.

For `N#Cc1cnc2ccc(NCc3cnc[nH]3)cc2c1Nc1ccc(F)c(Cl)c1`, the GI50 is over 100 µM in the assay on HCT-15 colon; 15.2 µM with HL-60(TB) leukemia; 1.08 µM with HOP-92 NSCLC; 17 µM in the assay with MDA-MB-231 breast; 2.44 µM in the assay with OVCAR-4 ovarian; over 100 µM in the assay on RPMI-8226 leukemia. The GI50 in the assay with SF-268 CNS is 5.97 µM; in the assay on UACC-257 melanoma it was 86 µM. The TGI in the assay on HCT-15 colon, with HL-60(TB) leukemia, in the assay on HOP-92 NSCLC, with MDA-MB-231 breast, in the assay with OVCAR-4 ovarian and in the assay with RPMI-8226 leukemia was over 100 µM in each case. Further, the TGI in the assay on SF-268 CNS and in the assay with UACC-257 melanoma was over 100 µM throughout.

Turning to `N#Cc1nc2cc(Cl)c(Cl)cc2nc1-c1ccc(Cl)cc1`, the GI50 was over 71.9 µM in the assay with HCT-15 colon; over 100 µM in the assay with HL-60(TB) leukemia; 27.8 µM in the assay with HOP-92 NSCLC; 22.3 µM in the assay on MDA-MB-231 breast; over 100 µM in the assay on OVCAR-4 ovarian; 24.3 µM in the assay on RPMI-8226 leukemia. Further, the figures for the GI50 in the assay on SF-268 CNS and in the assay with UACC-257 melanoma were 27.4 µM and 97.4 µM, respectively. For the same compound, the TGI was over 100 µM with HCT-15 colon; over 100 µM with HL-60(TB) leukemia; over 100 µM in the assay with HOP-92 NSCLC; over 73.4 µM with MDA-MB-231 breast; over 100 µM in the assay on OVCAR-4 ovarian; over 100 µM in the assay with RPMI-8226 leukemia. The results for the TGI in the assay with SF-268 CNS and with UACC-257 melanoma were over 72.7 µM and over 100 µM, respectively.

On to `CCCCCOC(=O)c1c(C)[nH]c(/C=C2\N=C(c3ccc[nH]3)C=C2OC)c1C`, for which the GI50 in the assay on HCT-15 colon was 0.0264 µM; in the assay with HL-60(TB) leukemia it was 0.0263 µM; in the assay on HOP-92 NSCLC, 0.0214 µM; with MDA-MB-231 breast it was under 0.0162 µM; in the assay with OVCAR-4 ovarian, 0.0559 µM; with RPMI-8226 leukemia it was 0.028 µM. For the same compound, the GI50 with SF-268 CNS was 0.0302 µM; in the assay with UACC-257 melanoma it was 0.0953 µM. Moreover, the TGI was determined as 1.4 µM in the assay on HCT-15 colon; 0.281 µM with HL-60(TB) leukemia; 0.116 µM with HOP-92 NSCLC; 0.216 µM in the assay on MDA-MB-231 breast; 2.39 µM in the assay on OVCAR-4 ovarian; 0.24 µM in the assay on RPMI-8226 leukemia. Further, the values for the TGI in the assay on SF-268 CNS and in the assay on UACC-257 melanoma were 1.87 µM and 1.28 µM, respectively.

With `CCN(Cc1ccccc1)c1ccc(/C=C2\COc3ccccc3C2=O)cc1`, the GI50 was 106 µM in the assay on HCT-15 colon; 221 µM in the assay with HL-60(TB) leukemia; 553 µM in the assay on HOP-92 NSCLC; 896 µM in the assay on MDA-MB-231 breast; 761 µM in the assay with OVCAR-4 ovarian; 146 µM with RPMI-8226 leukemia. Besides, the GI50 with SF-268 CNS and in the assay on UACC-257 melanoma was over 1000 µM throughout. Also, the TGI with HCT-15 colon, in the assay with HL-60(TB) leukemia, in the assay on HOP-92 NSCLC, in the assay on MDA-MB-231 breast, with OVCAR-4 ovarian and with RPMI-8226 leukemia was over 1000 µM in each case. Besides, the TGI in the assay with SF-268 CNS and in the assay with UACC-257 melanoma was over 1000 µM in each case.

As for `Cc1ccc(NC(=O)c2ccoc2)cc1-c1ccc(C(=O)NCC2CC2)cc1`, the GI50 with HCT-15 colon is over 20.5 µM; in the assay with HL-60(TB) leukemia, over 20.4 µM; in the assay on HOP-92 NSCLC, 8.76 µM; in the assay with MDA-MB-231 breast it was over 22.6 µM; in the assay on OVCAR-4 ovarian, over 18.8 µM; in the assay on RPMI-8226 leukemia, over 16.2 µM. The figures for the GI50 with SF-268 CNS and in the assay on UACC-257 melanoma were over 25 µM and over 17.7 µM, respectively. Further, the TGI in the assay on HCT-15 colon, in the assay on HL-60(TB) leukemia, in the assay on HOP-92 NSCLC, in the assay on MDA-MB-231 breast, in the assay on OVCAR-4 ovarian and in the assay on RPMI-8226 leukemia was over 25 µM in each case. Also, the TGI with SF-268 CNS and with UACC-257 melanoma was over 25 µM in each case.

On to `CN1CCN(c2ccc3nc(-c4[nH]ncc4Nc4ncnc5[nH]ccc45)[nH]c3c2)CC1`, for which the GI50 is 1.38 µM with HCT-15 colon; 0.285 µM in the assay with HL-60(TB) leukemia; 0.149 µM in the assay with HOP-92 NSCLC; 0.184 µM in the assay with MDA-MB-231 breast; 0.343 µM with OVCAR-4 ovarian; 5.92 µM in the assay on RPMI-8226 leukemia. Also, the GI50 in the assay on SF-268 CNS is 0.25 µM; in the assay on UACC-257 melanoma, 0.571 µM. The TGI in the assay on HCT-15 colon amounted to 13.3 µM; in the assay with HL-60(TB) leukemia it was 0.686 µM; with HOP-92 NSCLC it was 0.535 µM; in the assay with MDA-MB-231 breast it was 0.801 µM; with OVCAR-4 ovarian, 2.13 µM; in the assay on RPMI-8226 leukemia it was 19.3 µM. Also, the TGI came out at 0.803 µM in the assay with SF-268 CNS and 20.4 µM with UACC-257 melanoma.
